IC50 and GI50 data for ten compounds are collected here from patent publication US20220306659A1, “COMPOUND INHIBITING AND INDUCING DEGRADATION OF EGFR AND ALK” (BEIJING TIDE PHARMACEUTICAL CO., LTD., priority 2019, published 2022).

The target in one assay is EGFR^L858R/T790M/C797S (Homo sapiens, UniProt P00533, C797S/L858R/T790M). Description: EGFR inhibitory activity assay (TK-substrate-biotin/ATP, 665/615 ratio). Type of assay: biochemical. Conditions: kinase inhibition. The method, then: EGFR Inhibitory Activity Assay
(1) A compound stock solution was prepared and diluted 3× to obtain a compound dilution; 10 nL of the compound dilution was transferred to a 384-well plate (784075, Greiner) by Echo 550;
(2) The plate was sealed, and centrifuged at 1,000 g for 1 min;
(4) 5 μl of the 2×EGFR protein working solution was added to the 384-well plate from step (2), centrifuged at 1,000 g for 30 s, and allowed to stand at room temperature (mixed thoroughly) for 10 min;
(6) 5 µL of the TK-substrate-biotin and ATP (the mixture prepared in step (5)) was added to the 384-well plate from step (4) to initiate the reaction;
(7) The mixture was centrifuged at 1,000 g for 30 s; the plate was sealed, and allowed to stand (and reacted) at room temperature for 40 min;
(8) 4×Sa-XL 665 and TK-antibody-Cryptate were prepared with detection buffer;
(9) 5 µL of the Sa-XL 665 and 5 µL of the TK-antibody-Cryptate were added successively to the 384-well plate from step (7);
(10) The mixture was centrifuged at 1,000 g for 30 s, and allowed to stand (reacted) at room temperature for 1 h;
(11) The fluorescence values were read at 615 nm and 665 nm by enzyme labeling instrument (PerkinElmer, 74785).
The ratio (665/615) of each well was calculated.
(§1) Formula of inhibition rate (%): […]
Ratiocmpd: Ratio (665/615) value of assay compound.
Ratiopositive: Average ratio (665/615) value of positive control.
Ratiovehicle: Average ratio (665/615) value of negative control.
(§2) The nonlinear regression curve (dose response-variable slope) between the value of inhibition rate (%) and the logarithm of compound concentration was fitted with graphpad prism 8.0, the effect dose curve of compound was drawn, and the IC50 value was calculated.

In assay [1] the target is Ba/F3(EGFR^L858R/T790M/C797S) cells (Homo sapiens, UniProt P00533, T790M/C797S/L858R, cells depend on it). Kind of assay: Assay of activity on Ba/F3 cells (CTG, 72 h). The class given is cell-based. Conditions: read-out: IC50 (nM) Ba/F3 (EGFR^L858R/T790M/C797S). The essentials: (§3)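 Ba/F3 cells dependent on each EGFR triple mutant were exposed to 3-fold compound dilutions for 72 h at 37° C, 5% CO2, with CellTiter-Glo luminescence as the read-out.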

The next assay deals with ALK (Homo sapiens, UniProt Q9UM73). Description: Assay of activity on ALK kinase. Type of assay: biochemical. To be noted: kinase inhibition. The method, then: (§4) Assay of activity on ALK kinase
(§5) (1) A compound stock solution was prepared;
(§6) (2) The compound stock solution was diluted 3× to obtain a compound dilution;
(§7) (5) 5 μl of the 2× kinase working solution was added to the reaction plate, centrifuged at 1,000 rpm for 1 min, and incubated at 25° C. for 15 min;
(§8) (7) 5 μl of the TK-substrate-biotin and ATP (the mixture prepared in step (6)) was added to initiate the reaction;
(§9) (8) The mixture was centrifuged at 1,000 g for 30 s; the plate was sealed, and incubated at 25° C. for 60 min;
(§10) (11) The mixture was centrifuged at 1,000 g for 1 min, and incubated at 25° C. for 60 min;
as §1, §2
(§11) Y=Bottom+(Top−Bottom)/(1+10^((LogIC50−X)*Hill Slope))
(§12) X-axis: logarithm of compound concentration; Y axis: inhibition rate ([…])

The target of another assay is T1, Ba/F3(EML4-ALK) cells (Homo sapiens, UniProt Q9UM73).
T1 construct: fused on or other part: Q9HC35 (Echinoderm microtubule-associated protein-like 4)
Kind of assay: Assay of activity on Ba/F3(EML4-ALK) cells (CTG, 72 h). The class given is cell-based. To be noted: read-out: IC50 (nM) Ba/F3(EML4-ALK). The method, then: Assay of activity on Ba/F3(EML4-ALK) cells
(1) Ba/F3(EML4-ALK) cells were cultured according to the requirements of ATCC, incubated in an incubator at 37° C. and 5% CO2, and analyzed by index; cells with viability of >90% can be used in the assay, and cells were seeded in a 384-well plate (PerkinElmer, 6007680) with 700 cells/well, 30 μl/well.
(2) A compound stock solution was prepared, and diluted 3× to obtain a compound dilution; 30 nL of the serial dilution was added to a 384-well plate (784075, Greiner) by Echo 550, and cells were incubated in an incubator at 37° C. and 5% CO2 for 72 h.
(3) 30 μL of CTG was added to each well, and the 384-well plate was shaken on a Plate shaker (QILINBEIER, QB-9002); the 384-well plate was incubated in the dark at 37° C. and 5% CO2 for 30 min, and the chemiluminescence value was read by Envision (PerkinElmer, EnVision 2104).
The percent inhibition rate (% inhibition) was calculated by the formula below
LUMcmpd: Luminescence value of assay compound.
LUMpositive: Average LUM value of positive drug at a concentration of 10 μM.
LUM^vehicle: Average LUM value of negative control group without drug treatment.
as §2
Y=Bottom+(Top−Bottom)/(1+10^((LogIC50−X)*HillSlope))
X-axis: logarithm of compound concentration; Y axis: inhibition rate (% inhibition).

For a further assay, the target named is ALK^G1202R (Homo sapiens, UniProt Q9UM73, G1202R). Kind of assay: Assay of activity on ALK kinase. The class given is biochemical. To be noted: kinase inhibition. As to the method: as §4, §5, §6, §7, §8, §9, §10, §1, §2, §11, §12
The target of assay [2] is Ba/F3(EGFR^Del19/T790M/C797S) cells (Homo sapiens, UniProt P00533, DEL746-750/T790M/C797S, cells depend on it). Description: Assay of activity on Ba/F3 cells (CTG, 72 h). The class given is cell-based. To be noted: read-out: IC50 (nM) Ba/F3 (EGFR^Del19/T790M/C797S). The essentials: as §3

T1 sequence (Q9UM73 whole entry, change not shown, the tested form may be a part): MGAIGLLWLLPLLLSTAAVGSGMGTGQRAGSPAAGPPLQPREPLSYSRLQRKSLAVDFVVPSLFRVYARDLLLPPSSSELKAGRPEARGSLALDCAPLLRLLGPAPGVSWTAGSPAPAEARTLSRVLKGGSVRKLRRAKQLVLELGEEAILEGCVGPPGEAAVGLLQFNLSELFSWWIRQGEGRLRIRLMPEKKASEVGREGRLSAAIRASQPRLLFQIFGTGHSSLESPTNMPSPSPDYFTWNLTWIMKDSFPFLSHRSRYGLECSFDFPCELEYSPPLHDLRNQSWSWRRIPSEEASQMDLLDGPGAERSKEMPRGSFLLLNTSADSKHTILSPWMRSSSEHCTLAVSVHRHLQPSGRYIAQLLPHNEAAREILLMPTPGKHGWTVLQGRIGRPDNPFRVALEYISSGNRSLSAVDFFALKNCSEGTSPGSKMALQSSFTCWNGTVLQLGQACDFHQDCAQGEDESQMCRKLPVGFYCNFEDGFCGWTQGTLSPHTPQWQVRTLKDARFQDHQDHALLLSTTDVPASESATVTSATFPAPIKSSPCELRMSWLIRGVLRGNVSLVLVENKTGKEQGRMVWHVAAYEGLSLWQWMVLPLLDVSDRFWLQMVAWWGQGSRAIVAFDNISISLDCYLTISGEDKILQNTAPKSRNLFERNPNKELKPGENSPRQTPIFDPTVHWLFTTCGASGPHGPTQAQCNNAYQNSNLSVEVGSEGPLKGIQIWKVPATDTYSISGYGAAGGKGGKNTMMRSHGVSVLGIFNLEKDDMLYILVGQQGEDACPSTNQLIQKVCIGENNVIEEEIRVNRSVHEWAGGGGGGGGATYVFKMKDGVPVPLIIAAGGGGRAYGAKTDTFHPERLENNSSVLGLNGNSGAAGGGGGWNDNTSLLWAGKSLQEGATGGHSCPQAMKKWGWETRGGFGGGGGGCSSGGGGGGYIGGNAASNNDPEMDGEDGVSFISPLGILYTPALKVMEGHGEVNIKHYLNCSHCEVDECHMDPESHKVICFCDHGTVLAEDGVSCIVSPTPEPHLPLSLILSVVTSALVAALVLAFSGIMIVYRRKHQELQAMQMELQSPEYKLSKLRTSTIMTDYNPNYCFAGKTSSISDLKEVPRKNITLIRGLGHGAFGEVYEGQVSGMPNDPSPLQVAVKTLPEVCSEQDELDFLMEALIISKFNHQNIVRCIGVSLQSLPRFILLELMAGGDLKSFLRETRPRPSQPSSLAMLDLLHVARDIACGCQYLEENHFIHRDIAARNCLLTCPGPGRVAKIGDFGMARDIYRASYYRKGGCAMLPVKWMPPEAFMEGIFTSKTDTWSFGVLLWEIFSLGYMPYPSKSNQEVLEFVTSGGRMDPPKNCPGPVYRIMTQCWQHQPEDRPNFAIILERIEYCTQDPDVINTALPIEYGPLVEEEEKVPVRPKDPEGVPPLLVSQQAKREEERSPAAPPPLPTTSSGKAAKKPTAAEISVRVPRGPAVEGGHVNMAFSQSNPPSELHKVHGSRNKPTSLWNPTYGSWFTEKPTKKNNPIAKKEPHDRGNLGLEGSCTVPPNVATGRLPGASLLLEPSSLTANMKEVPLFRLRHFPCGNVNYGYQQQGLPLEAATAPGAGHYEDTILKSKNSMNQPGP
ALK^G1202R, sequence (Q9UM73 19-1620 G1202R): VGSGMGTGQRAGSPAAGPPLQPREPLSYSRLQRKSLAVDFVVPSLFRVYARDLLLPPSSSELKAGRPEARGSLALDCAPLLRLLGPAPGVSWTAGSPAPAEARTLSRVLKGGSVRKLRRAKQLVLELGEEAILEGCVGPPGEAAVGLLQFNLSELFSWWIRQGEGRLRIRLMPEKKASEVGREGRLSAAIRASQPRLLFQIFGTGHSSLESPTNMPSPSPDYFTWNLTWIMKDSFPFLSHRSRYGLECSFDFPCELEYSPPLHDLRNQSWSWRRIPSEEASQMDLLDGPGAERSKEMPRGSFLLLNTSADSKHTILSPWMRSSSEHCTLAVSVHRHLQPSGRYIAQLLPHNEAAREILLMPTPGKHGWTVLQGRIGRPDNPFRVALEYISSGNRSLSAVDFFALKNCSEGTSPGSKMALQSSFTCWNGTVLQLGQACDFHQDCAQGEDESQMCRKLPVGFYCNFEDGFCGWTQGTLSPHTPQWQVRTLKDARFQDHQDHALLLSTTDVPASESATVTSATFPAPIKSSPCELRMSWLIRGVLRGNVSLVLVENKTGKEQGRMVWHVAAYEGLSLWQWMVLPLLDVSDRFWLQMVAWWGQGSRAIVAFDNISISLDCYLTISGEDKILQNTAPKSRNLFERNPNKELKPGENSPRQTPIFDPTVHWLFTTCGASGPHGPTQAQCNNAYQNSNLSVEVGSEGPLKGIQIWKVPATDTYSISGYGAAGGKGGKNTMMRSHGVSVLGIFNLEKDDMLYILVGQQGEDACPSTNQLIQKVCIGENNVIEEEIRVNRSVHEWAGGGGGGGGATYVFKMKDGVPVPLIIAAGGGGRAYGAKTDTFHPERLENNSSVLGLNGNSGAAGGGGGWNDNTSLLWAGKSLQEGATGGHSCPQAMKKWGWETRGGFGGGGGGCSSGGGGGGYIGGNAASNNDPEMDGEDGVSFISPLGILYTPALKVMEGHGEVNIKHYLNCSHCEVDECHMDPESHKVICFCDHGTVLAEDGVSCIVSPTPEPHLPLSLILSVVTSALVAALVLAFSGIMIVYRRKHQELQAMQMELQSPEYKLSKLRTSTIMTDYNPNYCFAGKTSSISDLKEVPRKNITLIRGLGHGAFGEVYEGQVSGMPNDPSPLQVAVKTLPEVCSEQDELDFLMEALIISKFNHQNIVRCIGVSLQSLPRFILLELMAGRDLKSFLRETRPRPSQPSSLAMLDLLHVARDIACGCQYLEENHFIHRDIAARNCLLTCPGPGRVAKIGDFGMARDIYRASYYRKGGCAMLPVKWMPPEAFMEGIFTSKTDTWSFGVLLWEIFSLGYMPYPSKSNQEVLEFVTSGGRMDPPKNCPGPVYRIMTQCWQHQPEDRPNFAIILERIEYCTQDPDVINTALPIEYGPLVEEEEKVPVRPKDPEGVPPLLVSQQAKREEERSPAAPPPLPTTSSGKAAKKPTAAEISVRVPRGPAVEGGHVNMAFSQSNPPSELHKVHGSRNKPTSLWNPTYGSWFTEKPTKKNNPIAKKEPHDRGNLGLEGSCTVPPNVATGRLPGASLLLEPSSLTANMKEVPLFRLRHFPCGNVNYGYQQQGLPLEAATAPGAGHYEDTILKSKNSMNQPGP
Ba/F3(EGFR^L858R/T790M/C797S) cells, sequence (P00533 whole entry T790M/C797S/L858R): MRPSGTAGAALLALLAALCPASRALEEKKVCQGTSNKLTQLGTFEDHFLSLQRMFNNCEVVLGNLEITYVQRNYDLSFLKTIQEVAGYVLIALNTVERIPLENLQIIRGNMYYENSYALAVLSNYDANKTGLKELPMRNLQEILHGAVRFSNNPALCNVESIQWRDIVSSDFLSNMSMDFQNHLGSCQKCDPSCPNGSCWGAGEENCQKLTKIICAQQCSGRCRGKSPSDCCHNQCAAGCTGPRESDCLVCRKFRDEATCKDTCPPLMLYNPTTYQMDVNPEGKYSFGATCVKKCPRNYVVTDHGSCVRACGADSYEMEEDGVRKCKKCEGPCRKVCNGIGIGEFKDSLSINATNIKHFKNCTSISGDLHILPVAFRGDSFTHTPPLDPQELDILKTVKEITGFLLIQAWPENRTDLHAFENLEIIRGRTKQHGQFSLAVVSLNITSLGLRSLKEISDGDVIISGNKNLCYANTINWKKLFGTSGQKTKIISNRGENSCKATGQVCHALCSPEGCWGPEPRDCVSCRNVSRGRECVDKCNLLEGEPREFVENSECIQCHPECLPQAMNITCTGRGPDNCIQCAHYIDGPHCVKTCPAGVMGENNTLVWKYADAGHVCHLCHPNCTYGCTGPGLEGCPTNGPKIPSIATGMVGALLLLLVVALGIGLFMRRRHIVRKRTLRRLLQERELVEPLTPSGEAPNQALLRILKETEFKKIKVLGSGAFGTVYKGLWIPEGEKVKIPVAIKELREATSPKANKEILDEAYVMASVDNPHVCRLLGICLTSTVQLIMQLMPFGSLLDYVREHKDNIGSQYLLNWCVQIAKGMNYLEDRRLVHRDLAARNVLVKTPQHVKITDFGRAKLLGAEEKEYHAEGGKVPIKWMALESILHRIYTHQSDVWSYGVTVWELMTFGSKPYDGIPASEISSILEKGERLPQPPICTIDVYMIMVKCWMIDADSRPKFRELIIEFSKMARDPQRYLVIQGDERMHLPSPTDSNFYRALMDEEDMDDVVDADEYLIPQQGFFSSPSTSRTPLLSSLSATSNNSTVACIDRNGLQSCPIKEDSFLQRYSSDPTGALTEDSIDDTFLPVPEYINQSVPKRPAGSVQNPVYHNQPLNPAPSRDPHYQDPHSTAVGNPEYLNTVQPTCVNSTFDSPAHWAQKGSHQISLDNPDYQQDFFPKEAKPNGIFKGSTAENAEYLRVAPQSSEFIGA
ALK, sequence (Q9UM73 19-1620): as the sequence (Q9UM73 19-1620 G1202R) above, with R1184G counted along it

What is called IC50 is the midpoint of a concentration-inhibition curve. On to `COc1cc(N2CCC(N3CCN(CCCCCC#Cc4cccc5c4CN(C4CCC(=O)NC4=O)C5=O)CC3)CC2)ccc1Nc1ncc(Cl)c(Nc2ccccc2P(C)(C)=O)n1` (stereo not shown) [Compound C1, 3-(4-(7-(4-(1-(4-((5-chloro-4-((2-(dimethylphosphoryl)phenyl)amino)pyrimidin-2-yl)amino)-3-methoxyphenyl)piperidin-4-yl)piperazin-1-yl)hept-1-yn-1-yl)-1-oxoisoindolin-2-yl)piperidine-2,6-dione], for which the IC50 at EGFR^L858R/T790M/C797S and against ALK was 1 to 100 nM in each case. For the same compound, the GI50 (in assay [1]; at Ba/F3(EML4-ALK) cells) was 1 to 100 nM throughout.
With `COc1cc(N2CCC(N3CCN(CC(=O)N4CCC(CCOc5cccc6c5C(=O)N(C5CCC(=O)NC5=O)C6=O)CC4)CC3)CC2)ccc1Nc1ncc(Cl)c(Nc2ccccc2P(C)(C)=O)n1` (stereo not shown) [Compound C4, 4-(2-(1-(2-(4-(1-(4-((5-chloro-4-((2-(dimethylphosphoryl)phenyl)amino)pyrimidin-2-yl)amino)-3-methoxyphenyl)piperidin-4-yl)piperazin-1-yl)acetyl)piperidin-4-yl)ethoxy)-2-(2,6-dioxopiperidin-3-yl)isoindoline-1,3-dione], the figures for the IC50 at EGFR^L858R/T790M/C797S, at ALK and against ALK^G1202R were 101 to 200 nM, 1 to 100 nM and 101 to 200 nM, respectively. Moreover, in assay [1], the GI50 is 101 to 200 nM.
As to `COc1cc(N2CCC(N3CCN(C(=O)C(C)(C)COC(=O)COc4cccc5c4C(=O)N(C4CCC(=O)NC4=O)C5=O)CC3)CC2)ccc1Nc1ncc(Cl)c(Nc2ccccc2P(C)(C)=O)n1` (stereo not shown) [Compound C6, 2-((2-(2,6-dioxopiperidin-3-yl)-1,3-dioxoisoindolin-4-yl)oxy)acetic acid 3-(4-(1-(4-((5-Chloro-4-((2-(dimethylphosphoryl)phenyl)amino)pyrimidin-2-yl)amino)-3-methoxyphenyl)piperidin-4-yl)piperazin-1-yl)-2,2-dimethyl-3-oxopropyl ester], the figures for the IC50 on EGFR^L858R/T790M/C797S, against ALK and against ALK^G1202R were 101 to 200 nM, 1 to 100 nM and 1 to 100 nM, respectively. In assay [1], the GI50 was 201 to 300 nM.
Regarding `COc1cc(N2CCC3(CCN(CCCCCCCOc4cccc5c4C(=O)N(C4CCC(=O)NC4=O)C5=O)CC3)CC2)c(C)cc1Nc1ncc(Br)c(Nc2ccc3nccnc3c2P(C)(C)=O)n1` (stereo not shown) [Compound C47, 4-((7-(9-(4-((5-bromo-4-((5-(dimethylphosphoryl)quinoxalin-6-yl)amino)pyrimidin-2-yl)amino)-5-methoxy-2-methylphenyl)-3,9-diazaspiro[5.5]undecan-3-yl)heptyl)oxy)-2-(2,6-dioxopiperidin-3-yl)isoindoline-1,3-dione], the GI50 (in assay [2]; in assay [1]; at Ba/F3(EML4-ALK) cells) was 101 to 200 nM in each case.
With `COc1cc(N2CCC(N3CCN(CC(=O)N4CC(Oc5cccc6c5C(=O)N(C5CCC(=O)NC5=O)C6=O)C4)CC3)CC2)ccc1Nc1ncc(Cl)c(Nc2ccccc2P(C)(C)=O)n1` (stereo not shown) [Compound C93, 4-((1-(2-(4-(1-(4-((5-chloro-4-((2-(dimethylphosphoryl)phenyl)amino)pyrimidin-2-yl)amino)-3-methoxyphenyl)piperidin-4-yl)piperazin-1-yl)acetyl)azetidin-3-yl)oxy)-2-(2,6-dioxopiperidin-3-yl)isoindoline-1,3-dione], the IC50 at EGFR^L858R/T790M/C797S, on ALK and against ALK^G1202R was 1 to 100 nM each time. In assay [1], the GI50 is over 300 nM.
For the compound `COc1cc(N2CCC(N3CCN(C(=O)CC4(CSCC(=O)Nc5cccc6c5C(=O)N(C5CCC(=O)NC5=O)C6=O)CC4)CC3)CC2)ccc1Nc1ncc(Cl)c(Nc2ccccc2P(C)(C)=O)n1` (stereo not shown) [Compound C103, 2-(((1-(2-(4-(1-(4-((5-chloro-4-((2-(dimethylphosphoryl)phenyl)amino)pyrimidin-2-yl)amino)-3-methoxyphenyl)piperidin-4-yl)piperazin-1-yl)-2-oxoethyl)cyclopropyl)methyl)thio)—N-(2-(2,6-dioxopiperidin-3-yl)-1,3-dioxoisoindolin-4-yl)acetamide], the IC50 is 201 to 300 nM at EGFR^L858R/T790M/C797S, 1 to 100 nM at ALK and over 300 nM against ALK^G1202R.
Regarding `COc1cc(N2CCC(N3CCN(CCCCCCCOc4cccc5c4C(=O)N(C4CCC(=O)NC4=O)C5=O)CC3)CC2)c(C)cc1Nc1ncc(Br)c(Nc2ccc3nccnc3c2P(C)(C)=O)n1` (stereo not shown) [Compound C158, 4-((7-(4-(1-(4-((5-bromo-4-((5-(dimethylphosphoryl)quinoxalin-6-yl)amino)pyrimidin-2-yl)amino)-5-methoxy-2-methylphenyl)piperidin-4-yl)piperazin-1-yl)heptyl)oxy)-2-(2,6-dioxopiperidin-3-yl)isoindoline-1,3-dione], the GI50 in assay [2] is 1 to 100 nM; in assay [1] it was 101 to 200 nM; on Ba/F3(EML4-ALK) cells, 201 to 300 nM.
Regarding `[2H]C([2H])(CCCCCCOc1cccc2c1C(=O)N(C1CCC(=O)NC1=O)C2=O)N1CCN(C2CCN(c3ccc(Nc4ncc(Cl)c(Nc5ccccc5P(C)(C)=O)n4)c(OC)c3)CC2)CC1` (stereo not shown) [Compound C164, 4-((7-(4-(1-(4-((5-chloro-4-((2-(dimethylphosphoryl)phenyl)amino)pyrimidin-2-yl)amino)-3-methoxyphenyl)piperidin-4-yl)piperazin-1-yl)heptyl-7,7-dideuterium)oxy)-2-(2,6-dioxopiperidin-3-yl)isoindoline-1,3-dione], at EGFR^L858R/T790M/C797S, the IC50 was in the range of 1 to 100 nM. The GI50 (in assay [2]; at Ba/F3(EML4-ALK) cells) was 1 to 100 nM each time.
Regarding `COc1cc(N2CCC(N3CCN(CCCCCCCC#Cc4cccc5c4CN(C4CCC(=O)NC4=O)C5=O)CC3)CC2)c(C)cc1Nc1ncc(Br)c(Nc2ccc3nccnc3c2P(C)(C)=O)n1` (stereo not shown) [Compound C183, 3-(4-(9-(4-(1-(4-((5-bromo-4-((5-(dimethylphosphoryl)quinoxalin-6-yl)amino)pyrimidin-2-yl)amino)-5-methoxy-2-methylphenyl)piperidin-4-yl)piperazin-1-yl)non-1-yn-1-yl)-1-oxoisoindolin-2-yl)piperidine-2,6-dione], the GI50 (in assay [2]; in assay [1]; at Ba/F3(EML4-ALK) cells) was 1 to 100 nM in each case.
Consider `COc1cc(N2CCC(N3CCN(CCCCCCCOc4cccc5c4CN(C4CCC(=O)NC4=O)C5=O)CC3)CC2)c(C)cc1Nc1ncc(Br)c(Nc2ccc3nccnc3c2P(C)(C)=O)n1` (stereo not shown) [Compound C214, 3-(4-((7-(4-(1-(4-((5-bromo-4-((5-(dimethylphosphoryl)quinoxalin-6-yl)amino)pyrimidin-2-yl)amino)-5-methoxy-2-methylphenyl)piperidin-4-yl)piperazin-1-yl)heptyl)oxy)-1-oxoisoindolin-2-yl)piperidine-2,6-dione], for which the GI50 (in assay [2]; in assay [1]; at Ba/F3(EML4-ALK) cells) was 1 to 100 nM each time.
